What was measured:
S. aureus (Smith) = test: Sustained anti-infective protection, compound given before LD90-100 S. aureus (Smith) challenge, survival; assay type: in vivo, ICR Swiss mice
Experimental: A second study was also performed to examine the sustained anti-infective protection of PEG-vancomycin conjugate 22. ICR Swiss mice were administered with either 100 mg/kg vancomycin equivalents of 22, 100 mg/kg vancomycin, or saline in two equally split doses 1½ hours apart. Ten mice per treatment group were used.

S. aureus (6538P) = test: Minimum Inhibitory Concentration (MIC), S. aureus (6538P); assay type: cell-based; settings: vancomycin equivalents
E.coli (25922) = test: Minimum Inhibitory Concentration (MIC), E.coli (25922); assay type: cell-based; settings: vancomycin equivalents
S. aureus (29214) = test: Minimum Inhibitory Concentration (MIC), S. aureus (29214); assay type: cell-based; settings: vancomycin equivalents
E. faecalis (29212) = test: Minimum Inhibitory Concentration (MIC), E. faecalis (29212); assay type: cell-based; settings: vancomycin equivalents
[1] = Circulatory pharmacokinetics after single intravenous dose in rats; settings: for Vss: 50 mg/kg
Experimental: PEG-vancomycin conjugates containing a 50 mg/kg vancomycin equivalent dose and 50 mg/kg native vancomycin (1) were injected as a single intravenous dose into the tail vein of conscious rats at a rate of 0.5 ml/min [˜2.5 min]. […] A 250 μL bled was done on rats sedated with 30% O2/70% CO2 via the retro-orbital plexus into EDTA containing vials. Blood was immediately processed for plasma and frozen on dry ice. Plasma samples were stored at −80° C. until analyzed. The plasma samples were analyzed by a fluorescence polarization immunoassay using an Abbott Laboratories TDx analyzer within two hours of thawing. A single compartment model using WinNonlin™ software was used to determine the-plasma pharmacokinetic parameters.

[2] = test system: Staphylococcus aureus (Smith); test: LD90-100 examination, compound given after S. aureus (Smith) challenge, survival; assay type: in vivo, ICR Swiss mice; settings: 100 mg/kg vancomycin equivalents in two equal split doses 1 and 2.5 h following LD90-100 S. aureus (Smith) inoculation; survival after 1 week
Experimental: Studies examining the in vivo anti-infective potential of PEG-vancomycin conjugates in ICR Swiss mice were performed. […] As controls, S. aureus (Smith) challenged mice were administered either saline or 100 mg/kg vancomycingiven in equal split doses. Ten mice were used per compound tested.

[3] = 50 mg/kg vancomycin equivalents i.v.
[4] = intravenous bolus 50 mg/kg vancomycin equivalents, plasma

Substance: vancomycin [Compound 1]
- anti-microbial protection against later S. aureus challenge (in words) (S. aureus (Smith); 100 mg/kg vancomycin equivalents given before challenge, ICR Swiss mice): no protection
- Pre-Challenge % Survival (mice) (S. aureus (Smith); 100 mg/kg vancomycin equivalents in two split doses 1½ h apart, given prior to LD90-100 S. aureus (Smith) challenge, survival after 1 week): 0%
- MIC S. aureus (6538P) (S. aureus (6538P)): 1.6 µg/mL
- MIC E.coli (25922) (E.coli (25922)): >100 µg/mL
- MIC S. aureus (29214) (S. aureus (29214)): 3.1 µg/mL
- MIC E. faecalis (29212) (E. faecalis (29212)): 6.2 µg/mL
- Cmax [1, 3]: 162 µg/mL
- area under the curve (AUC) [1, 3]: 78800 ng·h/mL
- circulatory half-life (t1/2) [1, 3]: 20.4 min
- clearance (CL) [1, 3]: 10.7 mL/min/kg
- AUC [1, 4]: 78800 ± 10800 ng·h/mL
- CL [1, 4]: 10.7 ± 1.4 mL/min/kg
- Cmax [1, 4]: 162.0 ± 9.0 µg/mL
- Plasma Half-life [1, 4]: 20.4 ± 2.4 min
- Vss [1, 4]: 0.3093 ± 0.0172 L/kg
- Vss ([1]; intravenous bolus 50 mg/kg vancomycin equivalents, plasma, listed as Vancomycin): 0.309 L/kg
- Post Challenge % Survival (mice) [2]: 100%

Reference: patent US7273845B2, “Polymeric prodrugs of vancomycin” (priority 2002, dated 2007)
